Measured values taken from article PMC11148080, “Ru(II)-based complexes containing 2-thiouracil derivatives suppress liver cancer stem cells by targeting NF-κB and Akt/mTOR signaling” (Cell Death Discovery, 2024).
Values joined by “and” are separate entries in the source; they are usually repeats but may differ in a detail not shown here. Identical values can stand only once.

Columns and labels:
Assay type in all cases: cell-based, human
[1] = test system: MRC-5; assay: Alamar Blue cytotoxicity, noncancerous cells; conditions: MRC-5, 72 h
Method: (§1) The Alamar Blue assay was used to measure cell viability, as previously described. Adherent cells were seeded in 96-well plates at a density of 7 × 10^3 cells per well, and suspended cells were seeded at 3 × 10^4 cells per well. Drugs were added to each well after overnight incubation for adherent cells or immediately after seeding for suspension cells, and incubation continued for an additional 72 h. The positive control included doxorubicin (Laboratorio IMA S.A.I.C., Buenos Aires, Argentina). Four hours (for cell lines) or 24 h (for primary cultures) before the end of incubation, 20 μL of resazurin (30 μM) (Sigma‒Aldrich Co. St. Louis, MO, USA) was added to each well. The absorbance at 570 and 600 nm was measured using a SpectraMax 190 microplate reader (Molecular Devices, Sunnyvale, CA, USA).

[2] = test system: BJ; assay: Alamar Blue cytotoxicity, noncancerous cells; conditions: 72 h
Method: as §1

[3] = test system: HepG2 cells; assay: DNA content assay (internucleosomal DNA fragmentation, cell cycle); conditions: HepG2, 72 h, control 5.6%
Method: Internucleosomal DNA fragmentation and cell cycle distribution were determined by a DNA content assay. The cells were stained with PI using a solution containing 0.1% Triton X-100, 2 µg/mL PI, 0.1% sodium citrate, and 100 μg/mL RNAse (all from Sigma‒Aldrich) and incubated in the dark for 15 min at room temperature. For all flow cytometry analyses, cellular fluorescence was measured using a BD LSRFortessa cytometer, BD FACSDiva software (BD Biosciences) and FlowJo software 10 (FlowJo LLC; Ashland, OR, USA). A minimum of 10,000 events were obtained per sample for intracellular staining, and a minimum of 30,000 events per sample were acquired for cell surface protein staining. Doublets were removed using FSC-A vs FCS-H and SCC-A vs SCC-H. Cellular debris was excluded from the analysis.

[4] = test system: SCC4; assay: Alamar Blue cytotoxicity; conditions: SCC4, 72 h
Method: as §1

[5] = test system: HSC-3; assay: Alamar Blue cytotoxicity; conditions: HSC-3, 72 h
Method: as §1

[6] = test system: Jurkat; assay: Alamar Blue cytotoxicity; conditions: Jurkat, 72 h
Method: as §1

[7] = test system: PANC-1; assay: Alamar Blue cytotoxicity; conditions: PANC-1, 72 h
Method: as §1

[8] = test system: SCC-9; assay: Alamar Blue cytotoxicity; conditions: SCC-9, 72 h
Method: as §1

[9] = test system: NB4; assay: Alamar Blue cytotoxicity; conditions: NB4, 72 h
Method: as §1

[10] = test system: A549; assay: Alamar Blue cytotoxicity; conditions: A549, 72 h
Method: as §1

[11] = test system: DU 145; assay: Alamar Blue cytotoxicity; conditions: DU 145, 72 h
Method: as §1

[12] = test system: A-375; assay: Alamar Blue cytotoxicity; conditions: A-375, 72 h
Method: as §1

[13] = test system: OVCAR-3; assay: Alamar Blue cytotoxicity; conditions: OVCAR-3, 72 h
Method: as §1

[14] = test system: SCC-25; assay: Alamar Blue cytotoxicity; conditions: SCC-25, 72 h
Method: as §1

[15] = test system: KG-1a; assay: Alamar Blue cytotoxicity; conditions: KG-1a, 72 h
Method: as §1

[16] = test system: MCF-7; assay: Alamar Blue cytotoxicity; conditions: MCF-7, 72 h
Method: as §1

[17] = test system: K-562; assay: Alamar Blue cytotoxicity; conditions: K-562, 72 h
Method: as §1

[18] = test system: THP-1; assay: Alamar Blue cytotoxicity; conditions: THP-1, 72 h
Method: as §1

[19] = test system: HCT116; assay: Alamar Blue cytotoxicity; conditions: HCT116, 72 h
Method: as §1

[20] = test system: HepG2; assay: Alamar Blue cytotoxicity; conditions: HepG2, 72 h
Method: as §1

[21] = test system: MDA-MB-231; assay: Alamar Blue cytotoxicity; conditions: MDA-MB-231, 72 h
Method: as §1

[22] = test system: CAL 27; assay: Alamar Blue cytotoxicity; conditions: CAL 27, 72 h
Method: as §1

[23] = test system: U-87 MG; assay: Alamar Blue cytotoxicity; conditions: U-87 MG, 72 h
Method: as §1

[24] = test system: HL-60; assay: Alamar Blue cytotoxicity; conditions: HL-60, 72 h
Method: as §1, with “The positive control included doxorubicin (Laboratorio IMA S.A.I.C., Buenos Aires, Argentina).” left out

Cc1cc(=O)nc([S][Ru+])[nH]1.F[P-](F)(F)(F)(F)F.c1ccc(-c2ccccn2)nc1.c1ccc(P(c2ccccc2)c2ccccc2)cc1.c1ccc(P(c2ccccc2)c2ccccc2)cc1 [Complex 2, trans-[Ru(6m2TU)(PPh3)2(bipy)]PF6] was tested, and the IC50 [1] was 15.2 µM, the IC50 ([1]; listed as 2) was 15.2 µM and the IC50 [2] was 7.8 µM and 7.79 µM. The “DNA fragmentation (sub-G0/G1)” value ([3]; 1.5 µM) was 18.6%, the “DNA fragmentation (sub-G0/G1)” value ([3]; 3 µM) was 39.1% and the “DNA fragmentation (sub-G0/G1)” value ([3]; 6 µM) was 72.9%. For the same molecule, the IC50 [4] was 3.48 µM, the IC50 [5] was 5.55 µM and the IC50 [6] was 4.94 µM. For the same molecule, the IC50 [7] was 4.09 µM, the IC50 [8] was 2.54 µM and the IC50 [9] was 5.25 µM. For the same molecule, the IC50 [10] was 10.5 µM, the IC50 [11] was 3.74 µM and the IC50 [12] was 2 µM. The IC50 [13] was 1.6 µM and 1.62 µM, the IC50 [14] was 3.63 µM and the IC50 [15] was 3.77 µM. For the same molecule, the IC50 [16] was 7.29 µM, the IC50 [17] was 7.69 µM and the IC50 [18] was 6.47 µM. The IC50 [19] was 4.52 µM, the IC50 [20] was 3.17 µM and the IC50 [21] was 2.95 µM. It also gave an IC50 [22] of 4.31 µM, an IC50 [23] of 3.69 µM and an IC50 [24] of 4.11 µM.
